Assay results taken from ChEMBL document CHEMBL3792365, “Dioxol and dihydrodioxin analogs of 2- and 3-phenylacetonitriles as potent anti-cancer agents with nanomolar activity against a variety of human cancer cells” (2016).

Experiments:
Format in all cases: functional
[1] = Growth inhibition of human SNB75 cells at 10 uM after 48 hrs by sulforhodamine B assay; settings: SNB-75, 48 h, values are per cent of control
U-251 = assay: Growth inhibition of human U251 cells at 10 uM after 48 hrs by sulforhodamine B assay; settings: U-251, 48 h, values are per cent of control
[2] = Growth inhibition of human LOXIMVI cells at 10 uM after 48 hrs by sulforhodamine B assay; settings: LOX IMVI, values are per cent of control
M14 = assay: Growth inhibition of human M14 cells at 10 uM after 48 hrs by sulforhodamine B assay; settings: M14, 48 h, values are per cent of control
MDA-MB-435 = assay: Growth inhibition of human MDA-MB-435 cells at 10 uM after 48 hrs by sulforhodamine B assay; settings: MDA-MB-435, 48 h, values are per cent of control
SK-MEL-28 = assay: Growth inhibition of human SK-MEL-28 cells at 10 uM after 48 hrs by sulforhodamine B assay; settings: SK-MEL-28, 48 h, values are per cent of control
SK-MEL-5 = assay: Growth inhibition of human SK-MEL-5 cells at 10 uM after 48 hrs by sulforhodamine B assay; settings: SK-MEL-5, 48 h, values are per cent of control
[3] = Growth inhibition of human UACC62 cells at 10 uM after 48 hrs by sulforhodamine B assay; settings: UACC-62, 48 h, values are per cent of control
[4] = Growth inhibition of human IGROV1 cells at 10 uM after 48 hrs by sulforhodamine B assay; settings: IGROV-1, 48 h, values are per cent of control
[5] = Growth inhibition of human OVCAR4 cells at 10 uM after 48 hrs by sulforhodamine B assay; settings: OVCAR-4, 48 h, values are per cent of control
[6] = Growth inhibition of human OVCAR5 cells at 10 uM after 48 hrs by sulforhodamine B assay; settings: OVCAR-5, 48 h, values are per cent of control
[7] = Growth inhibition of human OVCAR8 cells at 10 uM after 48 hrs by sulforhodamine B assay; settings: OVCAR-8, 48 h, values are per cent of control
[8] = Growth inhibition of human NCI-ADR-RES cells at 10 uM after 48 hrs by sulforhodamine B assay; settings: values are per cent of control
A498 = assay: Growth inhibition of human A498 cells at 10 uM after 48 hrs by sulforhodamine B assay; settings: A498, 48 h, values are per cent of control
ACHN = assay: Growth inhibition of human ACHN cells at 10 uM after 48 hrs by sulforhodamine B assay; settings: values are per cent of control
[9] = Growth inhibition of human Caki1 cells at 10 uM after 48 hrs by sulforhodamine B assay; settings: CAKI-1, 48 h, values are per cent of control
[10] = Growth inhibition of human RXF393 cells at 10 uM after 48 hrs by sulforhodamine B assay; settings: RXF 393, 48 h, values are per cent of control
SN12C = assay: Growth inhibition of human SN12C cells at 10 uM after 48 hrs by sulforhodamine B assay; settings: values are per cent of control
[11] = Growth inhibition of human UO31 cells at 10 uM after 48 hrs by sulforhodamine B assay; settings: UO-31, 48 h, values are per cent of control
[12] = Growth inhibition of human DU145 cells at 10 uM after 48 hrs by sulforhodamine B assay; settings: DU-145, 48 h, values are per cent of control
MDA-MB-231 = assay: Growth inhibition of human MDA-MB-231 cells at 10 uM after 48 hrs by sulforhodamine B assay; settings: MDA-MB-231, 48 h, values are per cent of control
[13] = Growth inhibition of human Hs 578T cells at 10 uM after 48 hrs by sulforhodamine B assay; settings: values are per cent of control
[14] = Growth inhibition of human BT549 cells at 10 uM after 48 hrs by sulforhodamine B assay; settings: BT-549, 48 h, values are per cent of control
T47D = assay: Growth inhibition of human T47D cells at 10 uM after 48 hrs by sulforhodamine B assay; settings: values are per cent of control
MDA-MB-468 = assay: Growth inhibition of human MDA-MB-468 cells at 10 uM after 48 hrs by sulforhodamine B assay; settings: MDA-MB-468, 48 h, values are per cent of control
K562 = assay: Growth inhibition of human K562 cells at 10 uM after 48 hrs by sulforhodamine B assay; settings: K562, 48 h, values are per cent of control
A549 = assay: Growth inhibition of human A549/ATCC cells at 10 uM after 48 hrs by sulforhodamine B assay; settings: A549, 48 h, values are per cent of control
[15] = Growth inhibition of human HOP62 cells at 10 uM after 48 hrs by sulforhodamine B assay; settings: HOP-62, 48 h, values are per cent of control
NCI-H322M = assay: Growth inhibition of human NCI-H322M cells at 10 uM after 48 hrs by sulforhodamine B assay; settings: values are per cent of control
NCI-H460 = assay: Growth inhibition of human NCI-H460 cells at 10 uM after 48 hrs by sulforhodamine B assay; settings: NCI-H460, 48 h, values are per cent of control
NCI-H522 = assay: Growth inhibition of human NCI-H522 cells at 10 uM after 48 hrs by sulforhodamine B assay; settings: NCI-H522, 48 h, values are per cent of control
[16] = Growth inhibition of human COLO205 cells at 10 uM after 48 hrs by sulforhodamine B assay; settings: COLO 205, 48 h, values are per cent of control
[17] = Growth inhibition of human HCC2998 cells at 10 uM after 48 hrs by sulforhodamine B assay; settings: HCC 2998, 48 h, values are per cent of control
[18] = Growth inhibition of human HCT116 cells at 10 uM after 48 hrs by sulforhodamine B assay; settings: HCT-116, 48 h, values are per cent of control
[19] = Growth inhibition of human HCT15 cells at 10 uM after 48 hrs by sulforhodamine B assay; settings: HCT-15, 48 h, values are per cent of control
KM12 = assay: Growth inhibition of human KM12 cells at 10 uM after 48 hrs by sulforhodamine B assay; settings: KM12, 48 h, values are per cent of control
[20] = Growth inhibition of human SW620 cells at 10 uM after 48 hrs by sulforhodamine B assay; settings: SW-620, 48 h, values are per cent of control
[21] = Growth inhibition of human SF268 cells at 10 uM after 48 hrs by sulforhodamine B assay; settings: SF-268, 48 h, values are per cent of control
[22] = Growth inhibition of human SF539 cells at 10 uM after 48 hrs by sulforhodamine B assay; settings: SF-539, 48 h, values are per cent of control
[23] = Growth inhibition of human SNB19 cells at 10 uM after 48 hrs by sulforhodamine B assay; settings: SNB-19, 48 h, values are per cent of control

| Structure (SMILES) | growth, % of control at 10 µM [1] [%] | growth, % of control at 10 µM (U-251) [%] | growth, % of control at 10 µM [2] [%] | growth, % of control at 10 µM (M14) [%] | growth, % of control at 10 µM (MDA-MB-435) [%] | growth, % of control at 10 µM (SK-MEL-28) [%] | growth, % of control at 10 µM (SK-MEL-5) [%] | growth, % of control at 10 µM [3] [%] | growth, % of control at 10 µM [4] [%] | growth, % of control at 10 µM [5] [%] | growth, % of control at 10 µM [6] [%] | growth, % of control at 10 µM [7] [%] | growth, % of control at 10 µM [8] [%] | growth, % of control at 10 µM (A498) [%] | growth, % of control at 10 µM (ACHN) [%] | growth, % of control at 10 µM [9] [%] | growth, % of control at 10 µM [10] [%] | growth, % of control at 10 µM (SN12C) [%] | growth, % of control at 10 µM [11] [%] | growth, % of control at 10 µM [12] [%] | further results |
| --- | --- | --- | --- | --- | --- | --- | --- | --- | --- | --- | --- | --- | --- | --- | --- | --- | --- | --- | --- | --- | --- |
| N#C/C(=C\c1ccc(Cl)cc1Cl)c1ccc2c(c1)OCO2 | 76.2 | 91.1 | 103 | 88.7 | 50.7 | 98.3 | 98.9 | 81.9 | 97.9 | 88.7 | 106 | 104 | 100 | 101 | 102 | 86.9 | 101 | 102 | 75.1 | 99.3 | growth, % of control at 10 µM (MDA-MB-231): 119%; growth, % of control at 10 µM [13]: 135%; growth, % of control at 10 µM [14]: 86.4%; growth, % of control at 10 µM (T47D): 76.3%; growth, % of control at 10 µM (MDA-MB-468): 82.1%; growth, % of control at 10 µM (K562): 76.2%; growth, % of control at 10 µM (A549): 92.3%; growth, % of control at 10 µM [15]: 88%; growth, % of control at 10 µM (NCI-H322M): 86.4%; growth, % of control at 10 µM (NCI-H460): 103%; growth, % of control at 10 µM (NCI-H522): 75.8%; growth, % of control at 10 µM [16]: 99%; growth, % of control at 10 µM [17]: 94.8%; growth, % of control at 10 µM [18]: 99.5%; growth, % of control at 10 µM [19]: 82.9%; growth, % of control at 10 µM (KM12): 76%; growth, % of control at 10 µM [20]: 106%; growth, % of control at 10 µM [21]: 94.4%; growth, % of control at 10 µM [22]: 93.8%; growth, % of control at 10 µM [23]: 99.8% |
| COc1ccc(/C=C(\C#N)c2ccc3c(c2)OCO3)cn1 | 57 | 84.5 | 95.6 | 91.1 | 37.2 | 95.1 | 84.1 | 79.9 | 90.6 | 81.6 | 95 | 90.1 | 86 | 70.8 | 93.4 | 75.3 | 86.5 | 92.6 | 82.3 | 97.4 | growth, % of control at 10 µM (MDA-MB-231): 75.6%; growth, % of control at 10 µM [13]: 101%; growth, % of control at 10 µM [14]: 81%; growth, % of control at 10 µM (T47D): 81%; growth, % of control at 10 µM (MDA-MB-468): 60.8%; growth, % of control at 10 µM (K562): 64.2%; growth, % of control at 10 µM (A549): 77.4%; growth, % of control at 10 µM [15]: 88.1%; growth, % of control at 10 µM (NCI-H322M): 98.3%; growth, % of control at 10 µM (NCI-H460): 95.2%; growth, % of control at 10 µM (NCI-H522): 79.8%; growth, % of control at 10 µM [16]: 97.6%; growth, % of control at 10 µM [17]: 93.2%; growth, % of control at 10 µM [18]: 82.6%; growth, % of control at 10 µM [19]: 78%; growth, % of control at 10 µM (KM12): 63.9%; growth, % of control at 10 µM [20]: 86.1%; growth, % of control at 10 µM [21]: 91%; growth, % of control at 10 µM [22]: 83.1%; growth, % of control at 10 µM [23]: 96.4% |
| COc1cc(/C(C#N)=C/c2ccc3c(c2)OCCO3)cc(OC)c1OC | 17.1 | 8.1 | 24.7 | 5.7 | -22.2 | 63 | -38 | 45.4 | 25.5 | 44.9 | 49.1 | 10.4 | 17 | -11 | 34.4 | 20 | 41.8 | 34.5 | 23.9 | 6.7 | growth, % of control at 10 µM (MDA-MB-231): 13.7%; growth, % of control at 10 µM [13]: 18.7%; growth, % of control at 10 µM [14]: -17.2%; growth, % of control at 10 µM (T47D): 84.4%; growth, % of control at 10 µM (MDA-MB-468): -15.1%; growth, % of control at 10 µM (K562): 7.5%; growth, % of control at 10 µM (A549): 21.1%; growth, % of control at 10 µM [15]: 40.8%; growth, % of control at 10 µM (NCI-H322M): 24.2%; growth, % of control at 10 µM (NCI-H460): 5.2%; growth, % of control at 10 µM (NCI-H522): -27%; growth, % of control at 10 µM [16]: -74.4%; growth, % of control at 10 µM [17]: 14.9%; growth, % of control at 10 µM [18]: -12.3%; growth, % of control at 10 µM [19]: 16.5%; growth, % of control at 10 µM (KM12): 2%; growth, % of control at 10 µM [20]: 25.2%; growth, % of control at 10 µM [21]: 24.6%; growth, % of control at 10 µM [22]: 2.5%; growth, % of control at 10 µM [23]: 51.2% |
